# Test results reported in ChEMBL document CHEMBL1142396, “Structure-activity relationships among the nitrogen containing bisphosphonates in clinical use and other analogues: time-dependent inhibition of human farnesyl pyrophosphate synthase” (J Med Chem, 2008).
# Calls of active or inactive are those of the source. No cut-off for these calls is given here.
# Experiments:
# [1] = organism: Rattus norvegicus; test: Inhibition of bone resorption in rat assessed as phosphate; type: functional
# [2] = target: T1, Farnesyl pyrophosphate synthase (Homo sapiens, UniProt P14324)
# T1 sequence (P14324 whole entry): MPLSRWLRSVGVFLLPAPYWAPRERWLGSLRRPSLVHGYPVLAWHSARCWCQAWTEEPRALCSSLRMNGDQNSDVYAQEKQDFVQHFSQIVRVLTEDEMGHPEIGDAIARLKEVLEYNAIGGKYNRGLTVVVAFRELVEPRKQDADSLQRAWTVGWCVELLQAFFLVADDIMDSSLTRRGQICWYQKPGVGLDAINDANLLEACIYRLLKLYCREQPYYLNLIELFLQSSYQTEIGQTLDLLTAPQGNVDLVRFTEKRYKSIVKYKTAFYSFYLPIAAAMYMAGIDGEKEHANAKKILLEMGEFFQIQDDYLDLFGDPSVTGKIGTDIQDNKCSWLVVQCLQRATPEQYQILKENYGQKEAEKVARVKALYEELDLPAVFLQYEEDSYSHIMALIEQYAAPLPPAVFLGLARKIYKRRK
# [3] = target: T1, Farnesyl pyrophosphate synthase; remark: listed apart in the source
IC50 [2] [µM],Ki [2] [µM],IC50 [3] [µM],Ki [3] [µM],SMILES,LED [1] [µg/kg],Activity [1]
,,,,O=P(O)(O)C(CNc1ccccn1)P(=O)(O)O,10,
,,,,O=P(O)(O)C(O)(Cc1ccccc1)P(=O)(O)O,100,
,,,,O.O=P(O)(O)C(O)(Cn1ccnc1)P(=O)(O)O [ZOLEDRONIC ACID],0.1,
0.0326,0.0074,0.173,0.0348,O=P(O)(O)C(Cc1cccnc1)P(=O)(O)O,10,
,,,,CCCCCN(C)CCC(O)(P(=O)(O)O)P(=O)(O)O [IBANDRONIC ACID],0.1,
,,,,Cc1cccnc1NC(P(=O)(O)O)P(=O)(O)O,1,
,,,,O=P(O)(O)C(O)(CCc1cccnc1)P(=O)(O)O,1000,
0.0092,0.00074,0.349,0.0593,O=P(O)(O)C(O)(Cc1ccccn1)P(=O)(O)O,1,
0.0196,0.0039,1.71,0.177,C[n+]1cccc(CC(O)(P(=O)(O)O)P(=O)(O)O)c1,0.1,
181,29.8,243,40.5,O=P(O)(O)OP(=O)(O)O [PYROPHOSPHORIC ACID],,
,,,,NCCCC(O)(P(=O)(O)O)P(=O)(O)O [ALENDRONIC ACID],1,
,,,,NCCCCCC(O)(P(=O)(O)O)P(=O)(O)O [NERIDRONIC ACID],10,
,,,,NCCC(O)(P(=O)(O)O)P(=O)(O)O [PAMIDRONIC ACID],30,
,61,467,97.5,O=C(O)C(O)(Cc1cccnc1)P(=O)(O)O (stereo not given),300,
330,93,> 10000,> 4000,Cc1cccnc1NC(P(C)(=O)O)P(C)(=O)O (stereo not given),,inactive
,,,,O=P(O)(O)C(Nc1ccccn1)P(=O)(O)O,10,
,,,,O=P(O)(O)C(O)(Cc1cccnc1)P(=O)(O)O [RISEDRONIC ACID],0.3,
0.0137,0.0016,0.592,0.137,O=P(O)(O)C(O)(CC1CCCCN1)P(=O)(O)O (stereo not given),1,
0.0238,0.00328,0.869,0.112,O=P(O)(O)C(CC1CCCCN1)P(=O)(O)O (stereo not given),,
,,,,O=P(O)(O)C(NC1CCCCC1)P(=O)(O)O [(CYCLOHEXYLAMINO)METHYLENEDIPHOSPHONIC ACID],1,
0.0304,0.00445,0.259,0.039,O=P(O)(O)C(Cc1ccccn1)P(=O)(O)O [PIRIDRONIC ACID],10,
0.0614,0.0116,1.89,0.32,Cc1cccnc1NC(P(C)(=O)O)P(=O)(O)O (stereo not given),1000,

SMILES,IC50 [2] [µM],Ki [2] [µM],IC50 [3] [µM],Ki [3] [µM],LED [1] [µg/kg],Activity [1]
Cc1cccnc1NCC(P(=O)(O)O)P(=O)(O)O,0.734,0.196,0.989,0.155,1000,
Nc1ccccc1CC(O)(P(=O)(O)O)P(=O)(O)O,0.0216,0.0034,0.371,0.0646,1,
O=P(O)(O)CCc1cccnc1,824,128,,,,
CC1CCCN=C1NC(P(=O)(O)O)P(=O)(O)O (stereo not given),0.0103,0.001,0.541,0.0863,0.3,
NCCCCC(O)(P(=O)(O)O)P(=O)(O)O,0.298,0.0482,1.08,0.194,,
